pIC50: −log10 of the molar value.
Legend:
[1] = target: HIV-1 integrase (Human immunodeficiency virus 1); experiment: In vitro inhibitory concentration against HIV-1 recombinant integrase activity in standard 3'-processing assay
[2] = target: HIV-1 integrase (Human immunodeficiency virus 1); experiment: In vitro inhibitory concentration against HIV-1 recombinant integrase activity in strand transfer assay

pIC50 [1]: < 4.00 | pIC50 [2]: < 4.00
SMILES: O=C(c1ccc(O)cc1)c1ccc2ccc(/C=C/c3ccc(O)c(O)c3)nc2c1O [{2-[(E)-2-(3,4-Dihydroxy-phenyl)-vinyl]-8-hydroxy-quinolin-7-yl}-(4-hydroxy-phenyl)-methanone]
